Source: patent US4024224A, “14-Aminodaunomycins, their preparation and use” (priority 1974, dated 1977)
In brackets after ≈: the same amount, converted by molar mass. Like-named read-outs stand apart in the source and are kept apart here.

How the values were obtained:
[1] = test system: Mouse Embryo Fibroblasts; test: Proliferation of uninfected mouse embryo fibroblasts (MEF); format: cell-based; conditions: Mus musculus, Fibroblast, 72 h, read-out: MEF No. of cells
Procedure: (§1) Mouse embryo fibroblasts (MEF) were plated on 35 mm. Falcon plastic dishes and infected 24 hours later with Moloney Sarcoma Virus (MSV) in the presence of DEAE-dextran (25 μg./ml.). The samples were then treated for 3 days with different concentrations of the compounds of the invention. The number of foci of transformed cells was microscopically determined 5 days after the infection. Uninfected MEF were similarly treated and at the end of the experiment, the cells were counted in an haemocytometer. In all the experiments, the cells were incubated in a 5% CO2 incubator at 37° C.
(§2) For use in these tests the compounds were dissolved in distilled water or in 5% ethyl alcohol in distilled water and then diluted in culture medium.

[2] = as above; format: cell-based; conditions: mouse, mouse embryo fibroblasts
Procedure: as §1, §2

[3] = Antitumor activity and toxicity on ascites Sarcoma 180 in CD 1 mice; format: in vivo; conditions: mouse, in vivo, ip, read-out: % Toxic Deaths
Procedure: (§3) The antitumor activity of the compounds of the invention was tested on ascites Sarcoma 180.
(§4) Three month old CD 1 mice were used. Sarcoma 180 ascites cells were inoculated intraperitoneally (10^6 cells/mouse). For use in these tests, the compounds were dissolved in distilled water or in 5% ethyl alcohol in distilled water, then diluted with Ringers solution and administered i.p. 1 day after the tumor implant (10 ml./kg. of body weight).
(§5) The toxicity of the test compounds was evaluated by macroscopic autoptic examination mainly in terms of reduction in spleen size. The comparison of the effectiveness of the test compounds is based on the maximum increase in median survival time, as compared to untreated controls, over the dose range used. The number of Long Term Survivors (LTS) refers to tumor-free mice at the end of the experiment (60 days). Solid Sarcoma 180 was implanted subcutaneously by trocar in the flank of CD 1 mice according to standard methods. The mice were treated i.v. for 5 consecutive days, starting 1 day after the tumor implant. On the 11th day the tumor volume was measured by means of a caliper and evaluated according to the formula (a^2 × b)/2, a and b being the minimum and the maximum diameters respectively.

[4] = test system: ascites Sarcoma 180; test: as above; format: in vivo; conditions: for % LTS: 60 days; for LTS (Long Term Survivors after 60 days): survivors/total; for Toxic Deaths: deaths/total
Procedure: as §3, §4, §5

[5] = test system: Moloney Sarcoma Virus (MSV); test: Inhibition of MSV-M foci formation in mouse embryo fibroblasts; format: cell-based; conditions: Fibroblast, 120 h; for IC50: read-out: MSV-M foci ID 50 (Inhibiting Dose 50%)
Procedure: as §1, §2
The results of these tests are reported in Table I in terms of ID50 values (Inhibiting Dose 50%), calculated on dose-effects lines.

[6] = calculated on dose-effects lines, uninfected MEF, 3 days treatment, read-out: MEF proliferation ID 50 (Inhibiting Dose 50%)
[7] = 0.2 mg./kg. i.p. 1 day after tumor implant
[8] = 1 mg./kg. i.p. 1 day after tumor implant
[9] = 5 mg./kg. i.p. 1 day after tumor implant
[10] = 12.5 mg./kg. i.p. 1 day after tumor implant
[11] = 25 mg./kg. i.p. 1 day after tumor implant
[12] = 50 mg./kg. i.p. 1 day after tumor implant
[13] = 10 mg./kg. i.p. 1 day after tumor implant

COc1cccc2c1C(=O)c1c(O)c3c(c(O)c1C2=O)C[C@@](O)(C(=O)CN1CCN(C)CC1)C[C@@H]3O[C@H]1C[C@H](N)[C@H](O)[C@H](C)O1 [14-[N-(N'-methyl)-piperazino]-daunomycin]
activity at 0.0062 µg/mL ([1]; dose 0.0062 μg/ml, uninfected MEF, 3 days treatment): 67% | activity at 0.025 µg/mL ([1]; dose 0.0250 μg/ml, uninfected MEF, 3 days treatment): 64% | activity at 0.1 µg/mL ([1]; dose 0.1 μg/ml, uninfected MEF, 3 days treatment): 56% | activity at 0.4 µg/mL ([1]; dose 0.4 μg/ml, uninfected MEF, 3 days treatment): 23% | IC50 at 72 h [2, 6]: 90 ng/mL (≈ 0.144 µM) | mortality ([3]; 0.2 mg./kg. i.p.): 0% | mortality ([3]; 1 mg./kg. i.p.): 0% | mortality ([3]; 5 mg./kg. i.p.): 0% | mortality ([3]; 12.5 mg./kg. i.p.): 10% | mortality ([3]; 25 mg./kg. i.p.): 0% | mortality ([3]; 50 mg./kg. i.p.): 50% | T/C (median survival time, % over untreated controls) [4, 7]: 119% | % LTS [4, 7]: 0% | LTS (Long Term Survivors after 60 days) [4, 7]: 0/10 | Toxic Deaths ([4]; 0.2 mg./kg. i.p.): 0/10 | T/C (median survival time, % over untreated controls) [4, 8]: 103% | % LTS [4, 8]: 0% | LTS (Long Term Survivors after 60 days) [4, 8]: 0/10 | Toxic Deaths ([4]; 1 mg./kg. i.p.): 0/10 | T/C (median survival time, % over untreated controls) [4, 9]: 116% | % LTS [4, 9]: 0% | LTS (Long Term Survivors after 60 days) [4, 9]: 0/10 | Toxic Deaths ([4]; 5 mg./kg. i.p.): 0/10 | T/C (median survival time, % over untreated controls) [4, 10]: 167% | % LTS [4, 10]: 30% | LTS (Long Term Survivors after 60 days) [4, 10]: 3/10 | Toxic Deaths ([4]; 12.5 mg./kg. i.p.): 1/10 | T/C (median survival time, % over untreated controls) [4, 11]: 226% | % LTS [4, 11]: 30% | LTS (Long Term Survivors after 60 days) [4, 11]: 3/10 | Toxic Deaths ([4]; 25 mg./kg. i.p.): 0/10 | T/C (median survival time, % over untreated controls) [4, 12]: 130% | % LTS [4, 12]: 10% | LTS (Long Term Survivors after 60 days) [4, 12]: 1/10 | Toxic Deaths ([4]; 50 mg./kg. i.p.): 5/10 | IC50 ([5]; calculated on dose-effects lines, 3 days treatment): 11 ng/mL (≈ 0.0176 µM) | activity at 0.0062 µg/mL ([5]; dose 0.0062 μg/ml, 3 days treatment, foci counted 5 days after infection, read-out: MSV-M No. of foci): 60% | activity at 0.025 µg/mL ([5]; dose 0.0250 μg/ml, 3 days treatment, foci counted 5 days after infection, read-out: MSV-M No. of foci): 35% | activity at 0.1 µg/mL ([5]; dose 0.1 μg/ml, 3 days treatment, foci counted 5 days after infection, read-out: MSV-M No. of foci): 19% | activity at 0.4 µg/mL ([5]; dose 0.4 μg/ml, 3 days treatment, foci counted 5 days after infection, read-out: MSV-M No. of foci): 0%

COc1cccc2c1C(=O)c1c(O)c3c(c(O)c1C2=O)C[C@@](O)(C(=O)CO)C[C@@H]3O[C@H]1C[C@H](N)[C@H](O)[C@H](C)O1 [Adriamycin, reference compound]
activity at 0.0062 µg/mL [1]: 61% | activity at 0.0125 µg/mL [1]: 42% | activity at 0.025 µg/mL [1]: 37% | IC50 at 72 h [2, 6]: 10 ng/mL (≈ 0.0184 µM) | mortality ([3]; 0.2 mg./kg. i.p.): 0% | mortality ([3]; 1 mg./kg. i.p.): 0% | mortality ([3]; 5 mg./kg. i.p.): 10% | mortality ([3]; 10 mg./kg. i.p.): 20% | % LTS [4, 7]: 16% | LTS (Long Term Survivors after 60 days) [4, 7]: 5/30 | Toxic Deaths ([4]; 0.2 mg./kg. i.p.): 0/30 | T/C (median survival time, % over untreated controls) [4, 8]: 177% | % LTS [4, 8]: 45% | LTS (Long Term Survivors after 60 days) [4, 8]: 13/29 | Toxic Deaths ([4]; 1 mg./kg. i.p.): 0/29 | T/C (median survival time, % over untreated controls) [4, 9]: 200% | % LTS [4, 9]: 19% | LTS (Long Term Survivors after 60 days) [4, 9]: 9/47 | Toxic Deaths ([4]; 5 mg./kg. i.p.): 5/47 | % LTS [4, 13]: 0% | LTS (Long Term Survivors after 60 days) [4, 13]: 0/10 | Toxic Deaths ([4]; 10 mg./kg. i.p.): 2/10 | activity at 0.0062 µg/mL ([5]; read-out: MSV-M No. of foci): 46% | activity at 0.0125 µg/mL ([5]; read-out: MSV-M No. of foci): 24% | activity at 0.025 µg/mL ([5]; read-out: MSV-M No. of foci): 0% | IC50 [5]: 5 ng/mL (≈ 0.0092 µM)

COc1cccc2c1C(=O)c1c(O)c3c(c(O)c1C2=O)C[C@@](O)(C(C)=O)C[C@@H]3O[C@H]1C[C@H](N)[C@H](O)[C@H](C)O1 [Daunomycin]
activity at 0.0062 µg/mL [1]: 55% | activity at 0.0125 µg/mL [1]: 45% | activity at 0.025 µg/mL [1]: 22% | IC50 at 72 h [2]: 8.6 ng/mL (≈ 0.0163 µM) | mortality ([3]; 0.2 mg./kg. i.p.): 0% | mortality ([3]; 1 mg./kg. i.p.): 0% | mortality ([3]; 5 mg./kg. i.p.): 15% | T/C (median survival time, % over untreated controls) [4, 7]: 106% | % LTS [4, 7]: 5% | LTS (Long Term Survivors after 60 days) [4, 7]: 1/20 | Toxic Deaths ([4]; 0.2 mg./kg. i.p.): 0/20 | T/C (median survival time, % over untreated controls) [4, 8]: 193% | % LTS [4, 8]: 45% | LTS (Long Term Survivors after 60 days) [4, 8]: 9/20 | Toxic Deaths ([4]; 1 mg./kg. i.p.): 0/20 | T/C (median survival time, % over untreated controls) [4, 9]: 173% | % LTS [4, 9]: 15% | LTS (Long Term Survivors after 60 days) [4, 9]: 3/20 | Toxic Deaths ([4]; 5 mg./kg. i.p.): 3/20 | activity at 0.0062 µg/mL ([5]; read-out: MSV-M No. of foci): 51% | activity at 0.0125 µg/mL ([5]; read-out: MSV-M No. of foci): 17% | activity at 0.025 µg/mL ([5]; read-out: MSV-M No. of foci): 0% | IC50 [5]: 6 ng/mL (≈ 0.0114 µM)
